Read-outs that look alike come from different tables or passages of the source. No end group written: not given here.
Legend:
[1] = system: A549 xenograft NSCLC tumors; assay: A549 subcutaneous xenograft in nude mice, tumor growth; type: in vivo, BALB/c female nude mice; conditions: intratumoral injection every other day, four injections, 8 μg peptide and/or 7.4 ×10^6 Bq, 3 days after the last injection, four mice per group
From the text: (§1) Specific pathogen–free (SPF) 4-6-week-old (adult) BALB/c female nude mice were purchased from Guangdong Medical Laboratory Animal Center. The animals were housed at the Animal Resource Center (First Affiliated Hospital of Guangdong Pharmaceutical University) under SPF conditions. No animal was sick or died during the study. Nude mice were sacrificed by cervical dislocation in accordance with the Animal Management Measures of the Ministry of Health of the People’s Republic of China (Document no.55, 2001). All experiments were approved and were done in accordance with the guidelines of the Animal Experiment Ethics Committee of the First Affiliated Hospital of Guangdong Pharmaceutical University (Ethics approval number: FAHGPU20160316).
(§2) A total of 100 µl of A549 cells (1×10^6 cells) suspended in PBS were inoculated subcutaneously in the axillary area of nude mice to establish a subcutaneous xenograft model. Once the tumor was 3 to 4 mm long, the nude mice were used in the following experiment. A digital caliper (Mitutoyo, Japan, CD-15APX) was used to monitor tumor size every other day. Tumor volume was calculated according to the formula: volume = width^2 × length/2.
(§3) To reduce the thyroid uptake of ^131I, all nude mice were fed 0.1% potassium iodide (Shanghai Macklin Biochemical Co., Ltd., China) for 3 days to block the thyroid before the experiment. […]

[2] = Body weight of A549 tumor-bearing nude mice; type: in vivo, BALB/c female nude mice; conditions: intratumoral injection every other day, four injections, 8 μg peptide and/or 7.4 ×10^6 Bq, 3 days after the last injection, four mice per group
From the text: as §1, §2, §3

[3] = system: A549 cells; assay: CCK-8 cell proliferation and cytotoxicity; type: cell-based, human; conditions: CCK-8, 20,000 KBq/ml, 24 hours, triplicate, mean ± SD
Procedure: A549 cells were seeded in two 96-well plates at 5×10^3 cells (100 µl) per well and cultured for 24 hours at 5% CO2 and 37°C. The ^131I-Caerin 1.1, ^131I-Caerin 1.9, and Na-^131I solutions were added to a final concentration of 2500, 5000, 10,000, or 20,000 KBq/ml. In the corresponding plates for Caerin 1.1 and Caerin 1.9, the drug concentration was 3.29, 6.95, 14.29, or 30.72 µg/ml. The experiment was done in triplicate and included three control (drug-free) groups. The cells were cultured for another 24 hours. Next, 10 µl of CCK-8 solution (DOJINDO, Japan) was added to each well, and then the cells were cultured in the dark for 4-6 hours. The absorbance at 450 nm was measured in an enzyme-linked immunosorbent assay plate reader, and GraphPad Prism v9.3.0 was used to calculate the cell survival rate.

[4] = system: A549 cells; assay: Cell elution (retention); type: cell-based, human; conditions: 24 h incubation, wash, then 24 hours in serum-free medium, 1.85 ×10^5Bq per well, γ count, triplicate, mean ± SD
Procedure: A549 cells were seeded in four 24-well plates at 5×10^4 cells (500 µl) per well and cultured for 24 hours. The experiment was done in triplicate and included a positive-control well. The supernatant was discarded, 0.5 ml of serum-free medium was added to each well, and then ^131I-Caerin 1.1, ^131I-Caerin 1.9, or free ^131I was added (1.85 ×10^5Bq or 2 µl per well). After incubation for 24 hours, the supernatant was discarded, the cells were washed twice with PBS, 0.5 ml of serum-free medium was added to each well, and the cells were incubated for another 2, 4, 6, or 24 hours. For the positive control, the supernatant was collected in a tube. For the experimental groups, the supernatant was discarded, the cells were washed twice with PBS, and 200 µl of trypsin was added to each well. After digestion, the cells were washed three times with PBS and then collected in a tube to measure the radioactivity count. GraphPad Prism v9.3.0 was used to calculate the drug retention rate.

[5] = system: A549 cells; assay: Cell uptake; type: cell-based, human; conditions: 24 hours, serum-free medium, 1.85 ×10^5Bq per well, γ count, triplicate, mean ± SD
Procedure: A549 cells were seeded in four 24-well plates (Coring, USA) at 5×10^4 cells (500 µl) per well. The experiment was done in triplicate and included a positive-control well. After the cells were cultured in an incubator for 24 hours, the supernatant was discarded, 0.5 ml of serum-free medium was added to each well, and ^131I-Caerin 1.1 or ^131I-Caerin 1.9 and Na-^131I solution (1.85 ×10^5Bq or 2 µl per well) were added. After the cells were incubated for 2, 4, 6, or 24 hours, the cells were removed from the incubator. For the positive control, the supernatant was collected in a tube. For the experimental groups, the supernatant was discarded, and the cells were washed twice with PBS. Next, 200 µl of trypsin (GIBCO, USA) was added to each well. After digestion, the cells were washed three times with PBS and then collected in a tube to measure their radioactivity count. GraphPad Prism v9.3.0 was used to calculate the drug binding rate.

[6] = system: A549 cells; type: cell-based, human; conditions: MTT; for survival rate of A549 cells: overnight, triplicate, mean ± SD
Procedure: The NSCLC cell line A549 was from the Stem Cell Bank of the Chinese Academy of Sciences. The medium of A549 cells contained 89% RPMI medium 1640 (GIBCO, USA), 10% heat-inactivated fetal bovine serum (Coring, USA), and 1% penicillin-streptomycin solution (GIBCO, USA). The cells were incubated in an incubator (Thermo, USA) at 37°C in 5% CO2.
A total of 500 mg of 3-(4,5-dimethylthiazol-2-yl)-2,5-diphenyl tetrazolium bromide (MTT) powder (Sigma-Aldrich, USA) was dissolved in 100 ml of PBS to a final concentration of 5 mg/ml (0.5% MTT). The solution was stored in the dark at -20°C. A549 cells in the exponential growth phase were seeded in 96-well plates (Coring, USA) at 5×10^3 cells (100 µl) per well and then incubated at 37°C in 5% CO2 for 24 hours. Different concentrations of P3, Caerin 1.1, and Caerin 1.9 were added to the 96-well plates to reach final concentrations of 1, 5, 10, 15, 20, 25, 30, and 40 μg/ml. The experiment was done in triplicate and included control wells. The cells were cultured overnight. Once the drug’s effect was visible under the microscope, 10 µl of MTT solution was added to each well, and the cells were cultured for another 4 hours. Next, the supernatant was carefully aspirated, 150 µl of dimethyl sulfoxide solution (Sigma-Aldrich, USA) was added to each well, and the 96-well plates were placed on a shaker at low speed for 10 minutes. The absorbance at 570 nm was measured in an enzyme-linked immunosorbent assay plate reader (Thermo Scientific, USA). GraphPad Prism v9.3.0 was used calculate the half-maximal inhibitory concentration (IC50) of each drug and the survival rate (%).

Molecule: [131I-].[Na+] [Na-^131I, reference compound]
- tumor volume at the time of sacrifice [1]: 186.30 ± 19.69 mm^3
- tumor weight after sacrifice [1]: 0.147 ± 0.009 g
- body weight at the time of sacrifice [2]: 17.99 ± 0.50 g
- survival rate of A549 cells [3]: 71.56% ± 9.83%
- binding rate after elution [4]: 4.97% ± 0.59%
- uptake rate by A549 cells [5]: 0.67 ± 0.08%

Molecule: GLFGVLGSIAKHVLPHVVPVIAEKL-NH2 [Caerin 1.9]
- survival rate of A549 cells ([6]; 10 μg/ml): 74.20% ± 3.57%
- survival rate of A549 cells ([6]; 15 μg/ml): 72.65% ± 0.76%
- survival rate of A549 cells ([6]; 20 μg/ml): 36.43% ± 4.85%
- survival rate of A549 cells ([6]; 25 μg/ml): 20.43% ± 1.92%
- IC50 on A549 cells ([6]; 1-40 μg/ml, GraphPad Prism): 17.46 µg/mL
